Measured values: US20110105474A1, “HETEROCYCLIC DERIVATIVES AS HDAC INHIBITORS” (DAC S.r.l., priority 2008, published 2011)
Counter-ions that a name gives are not always drawn.

Tests used:
Type in all cases: cell-based
K562 cells = test: Cell growth, CellTiter-Glo Luminescent Cell Viability Assay, K562; conditions: Homo sapiens, 72 h incubation
Description: (§1) CellTiter-Glo® Luminescent Cell Viability Assay (Promega) is a homogeneous method of determining the number of viable cells in culture based on quantitation of the present ATP, which indicates the presence of metabolically active cells. The homogeneous assay procedure involves addition of a single reagent (CellTiter-Glo®Reagent) directly to the cells, which leads to cell lysis and generation of a luminescent signal proportional to the amount of the ATP and the number of cells present in culture. The assay relies on the properties of a proprietary thermostable luciferase (Ultra-Glo® recombinant luciferase), which generates a luminescent signal.
(§2) K562, A549 and HCT-116 cells, in exponential growth, were incubated for 72 h with different concentrations of the inhibitors. After 72 h, a volume of CellTiter-Glo® Reagent equal to the volume of cell culture medium was added. The content was mixed for 2 min to induce cell lysis. The luminescence was recorded after further 10 min at RT in order to obtain a stabilized luminescent signal.
(§3) The IC50 was calculated using GraphPad Software.
(§4) IC50 results were allocated to one of 3 ranges as follows: Range A: IC50≦1.0 μM; Range B: from 1.0 to 3.0 μM; Range C: IC50≧3.0 μM.

HCT-116 cells = test: Cell growth, CellTiter-Glo Luminescent Cell Viability Assay, HCT-116; conditions: Homo sapiens, 72 h incubation, read-out: IC50 HCT116
Description: as §1, §2, §3, §4

A549 cells = test: Cell growth, CellTiter-Glo Luminescent Cell Viability Assay, A549; conditions: Homo sapiens, 72 h incubation
Description: as §1, §2, §3, §4

SMILES | IC50 (K562 cells) [nM] | IC50 (HCT-116 cells) [nM] | IC50 (A549 cells) [nM]
O=C(/C=C/c1cccc(/C=C/C(=O)N2CCCC(c3ccccc3)C2)n1)NO (racemic) [Example 25, (±)-(E)-N-Hydroxy-3-{6-[(E)-3-oxo-3-(3-phenyl-piperidin-1-yl)-propenyl]-pyridin-2-yl}-acrylamide hydrochloride] | ≤ 1000 | ≤ 1000 | ≤ 1000
O=C(/C=C/c1cccc(/C=C/C(=O)N2CCNC(c3ccccc3)C2)n1)NO (racemic) [Example 33, (±)-(E)-N-Hydroxy-3-{6-[(E)-3-oxo-3-(3-phenyl-piperazin-1-yl)-propenyl]-pyridin-2-yl}-acrylamide hydrochloride] | 1000 to 3000 | 1000 to 3000 | ≥ 3000
Cc1ccccc1C1CCCN(C(=O)/C=C/c2cccc(/C=C/C(=O)NO)n2)C1 (racemic) [Example 42, (±)-(E)-N-Hydroxy-3-{6-[(E)-3-oxo-3-(3-o-tolyl-piperidin-1-yl)-propenyl]-pyridin-2-yl}-acrylamide hydrochloride] | ≤ 1000 | 1000 to 3000 | ≤ 1000
Cc1cccc(C2CCCN(C(=O)/C=C/c3cccc(/C=C/C(=O)NO)n3)C2)c1 (racemic) [Example 43, (±)-(E)-N-Hydroxy-3-{6-[(E)-3-oxo-3-(3-m-tolyl-piperidin-1-yl)-propenyl]-pyridin-2-yl}-acrylamide hydrochloride] | ≤ 1000 | ≤ 1000 | ≤ 1000
O=C(/C=C/c1cccc(/C=C/C(=O)N2CCCC(c3cccc4ccccc34)C2)n1)NO (racemic) [Example 44, (±)-(E)-N-Hydroxy-3-{6-[(E)-3-(3-naphthalen-1-yl-piperidin-1-yl)-3-oxo-propenyl]-pyridin-2-yl}-acrylamide hydrochloride] | ≤ 1000 | ≤ 1000 | 1000 to 3000
Cc1ccc(C2CCCN(C(=O)/C=C/c3cccc(/C=C/C(=O)NO)n3)C2)cc1 (racemic) [Example 46, (±)-(E)-N-Hydroxy-3-{6-[(E)-3-oxo-3-(3-p-tolyl-piperidin-1-yl)-propenyl]-pyridin-2-yl}-acrylamide hydrochloride] | ≤ 1000 | ≤ 1000 | 1000 to 3000
O=C(/C=C/c1cccc(/C=C/C(=O)N2CCCC(c3ccc4ccccc4c3)C2)n1)NO (racemic) [Example 47, (±)-(E)-N-Hydroxy-3-{6-[(E)-3-(3-naphthalen-2-yl-piperidin-1-yl)-3-oxo-propenyl]-pyridin-2-yl}-acrylamide hydrochloride] | ≤ 1000 | ≤ 1000 | ≤ 1000
O=C(/C=C/c1cccc(/C=C/C(=O)N2CCCC(c3ccc(F)cc3)C2)n1)NO (racemic) [Example 48, (±)-(E)-3-(6-{(E)-3-[3-(4-Fluoro-phenyl)-piperidin-1-yl]-3-oxo-propenyl}-pyridin-2-yl)-N-hydroxy-acrylamide hydrochloride] | ≤ 1000 | ≤ 1000 | 1000 to 3000
O=C(/C=C/c1cccc(/C=C/C(=O)N2CCC(c3ccccc3)C2)n1)NO (racemic) [Example 52, (±)-(E)-N-Hydroxy-3-{6-[(E)-3-oxo-3-(3-phenyl-pyrrolidin-1-yl)-propenyl]-pyridin-2-yl}-acrylamide hydrochloride] | 1000 to 3000 | 1000 to 3000 | ≥ 3000

The next lines start with the values.

IC50 (K562 cells) [nM] | IC50 (HCT-116 cells) [nM] | IC50 (A549 cells) [nM] | SMILES
≤ 1000 | ≤ 1000 | 1000 to 3000 | O=C(/C=C/c1cccc(/C=C/C(=O)N2CCCCC2c2ccccc2)n1)NO (racemic) [Example 53, (±)-(E)-N-Hydroxy-3-{6-[(E)-3-oxo-3-(2-phenyl-piperidin-1-yl)-propenyl]-pyridin-2-yl}-acrylamide hydrochloride]
≤ 1000 | ≤ 1000 | 1000 to 3000 | O=C(/C=C/c1cccc(/C=C/C(=O)N2CCCC(c3ccccc3)CC2)n1)NO (racemic) [Example 54, (±)-(E)-N-Hydroxy-3-{6-[(E)-3-oxo-3-(4-phenyl-azepan-1-yl)-propenyl]-pyridin-2-yl}-acrylamide hydrochloride]
≤ 1000 | ≤ 1000 | 1000 to 3000 | CN1CCN(C(=O)/C=C/c2cccc(/C=C/C(=O)NO)n2)CC1c1ccccc1 (racemic) [Example 63, (±)-(E)-N-Hydroxy-3-{6-[(E)-3-(4-methyl-3-phenyl-piperazin-1-yl)-3-oxo-propenyl]-pyridin-2-yl}-acrylamide hydrochloride]
≤ 1000 | ≤ 1000 | ≤ 1000 | CCN1CCN(C(=O)/C=C/c2cccc(/C=C/C(=O)NO)n2)CC1c1ccccc1 (racemic) [Example 64, (±)-(E)-3-{6-[(E)-3-(4-Ethyl-3-phenyl-piperazin-1-yl)-3-oxo-propenyl]-pyridin-2-yl}-N-hydroxy-acrylamide hydrochloride]
1000 to 3000 | 1000 to 3000 | 1000 to 3000 | O=C(/C=C/c1cccc(/C=C/C(=O)N2CCN(Cc3ccccc3)C(c3ccccc3)C2)n1)NO (racemic) [Example 65, (±)-(E)-3-{6-[(E)-3-(4-Benzyl-3-phenyl-piperazin-1-yl)-3-oxo-propenyl]-pyridin-2-yl}-N-hydroxy-acrylamide hydrochloride]
≥ 3000 | ≥ 3000 | ≥ 3000 | CC(=O)N1CCN(C(=O)/C=C/c2cccc(/C=C/C(=O)NO)n2)CC1c1ccccc1 (racemic) [Example 66, (±)-(E)-3-{6-[(E)-3-(4-Acetyl-3-phenyl-piperazin-1-yl)-3-oxo-propenyl]-pyridin-2-yl}-N-hydroxy-acrylamide hydrochloride]
≤ 1000 | ≤ 1000 | 1000 to 3000 | COc1ccccc1C1CCCN(C(=O)/C=C/c2cccc(/C=C/C(=O)NO)n2)C1 (racemic) [Example 67, (±)-(E)-N-Hydroxy-3-(6-{(E)-3-[3-(2-methoxy-phenyl)-piperidin-1-yl]-3-oxo-propenyl}-pyridin-2-yl)-acrylamide hydrochloride]
≤ 1000 | ≤ 1000 | ≤ 1000 | COc1cccc(C2CCCN(C(=O)/C=C/c3cccc(/C=C/C(=O)NO)n3)C2)c1 (racemic) [Example 68, (±)-(E)-N-Hydroxy-3-(6-{(E)-3-[3-(3-methoxy-phenyl)-piperidin-1-yl]-3-oxo-propenyl}-pyridin-2-yl)-acrylamide hydrochloride]
≤ 1000 | ≤ 1000 | ≤ 1000 | COc1ccc(C2CCCN(C(=O)/C=C/c3cccc(/C=C/C(=O)NO)n3)C2)cc1 (racemic) [Example 69, (±)-(E)-N-Hydroxy-3-(6-{(E)-3-[3-(4-methoxy-phenyl)-piperidin-1-yl]-3-oxo-propenyl}-pyridin-2-yl)-acrylamide hydrochloride]
≤ 1000 | ≤ 1000 | ≤ 1000 | O=C(/C=C/c1cccc(/C=C/C(=O)N2CCCC(c3ccccc3C(F)(F)F)C2)n1)NO (racemic) [Example 70, (±)-(E)-N-Hydroxy-3-(6-{(E)-3-oxo-3-[3-(2-trifluoromethyl-phenyl)-piperidin-1-yl]-propenyl}-pyridin-2-yl)-acrylamide hydrochloride]
≤ 1000 | ≤ 1000 | 1000 to 3000 | O=C(/C=C/c1cccc(/C=C/C(=O)N2CCCC(c3cccc(C(F)(F)F)c3)C2)n1)NO (racemic) [Example 71, (±)-(E)-N-Hydroxy-3-(6-{(E)-3-oxo-3-[3-(3-trifluoromethyl-phenyl)-piperidin-1-yl]-propenyl}-pyridin-2-yl)-acrylamide hydrochloride]
